The record followed here is US20240316047A1, “INHIBITORS OF RNA HELICASE DHX9 AND USES THEREOF” (ACCENT THERAPEUTICS, INC., priority 2022, published 2024).

This assay has as its target Human recombinant DHX9 protein (Homo sapiens (Human), UniProt Q08211). The assay is described as follows: DHX9 ATPase assay (ADP-Glo). It is filed as biochemical. The following applies: for IC50: read-out: DHX9 Biochemical Inflection Point.

Human recombinant DHX9 protein, sequence (Q08211 whole entry): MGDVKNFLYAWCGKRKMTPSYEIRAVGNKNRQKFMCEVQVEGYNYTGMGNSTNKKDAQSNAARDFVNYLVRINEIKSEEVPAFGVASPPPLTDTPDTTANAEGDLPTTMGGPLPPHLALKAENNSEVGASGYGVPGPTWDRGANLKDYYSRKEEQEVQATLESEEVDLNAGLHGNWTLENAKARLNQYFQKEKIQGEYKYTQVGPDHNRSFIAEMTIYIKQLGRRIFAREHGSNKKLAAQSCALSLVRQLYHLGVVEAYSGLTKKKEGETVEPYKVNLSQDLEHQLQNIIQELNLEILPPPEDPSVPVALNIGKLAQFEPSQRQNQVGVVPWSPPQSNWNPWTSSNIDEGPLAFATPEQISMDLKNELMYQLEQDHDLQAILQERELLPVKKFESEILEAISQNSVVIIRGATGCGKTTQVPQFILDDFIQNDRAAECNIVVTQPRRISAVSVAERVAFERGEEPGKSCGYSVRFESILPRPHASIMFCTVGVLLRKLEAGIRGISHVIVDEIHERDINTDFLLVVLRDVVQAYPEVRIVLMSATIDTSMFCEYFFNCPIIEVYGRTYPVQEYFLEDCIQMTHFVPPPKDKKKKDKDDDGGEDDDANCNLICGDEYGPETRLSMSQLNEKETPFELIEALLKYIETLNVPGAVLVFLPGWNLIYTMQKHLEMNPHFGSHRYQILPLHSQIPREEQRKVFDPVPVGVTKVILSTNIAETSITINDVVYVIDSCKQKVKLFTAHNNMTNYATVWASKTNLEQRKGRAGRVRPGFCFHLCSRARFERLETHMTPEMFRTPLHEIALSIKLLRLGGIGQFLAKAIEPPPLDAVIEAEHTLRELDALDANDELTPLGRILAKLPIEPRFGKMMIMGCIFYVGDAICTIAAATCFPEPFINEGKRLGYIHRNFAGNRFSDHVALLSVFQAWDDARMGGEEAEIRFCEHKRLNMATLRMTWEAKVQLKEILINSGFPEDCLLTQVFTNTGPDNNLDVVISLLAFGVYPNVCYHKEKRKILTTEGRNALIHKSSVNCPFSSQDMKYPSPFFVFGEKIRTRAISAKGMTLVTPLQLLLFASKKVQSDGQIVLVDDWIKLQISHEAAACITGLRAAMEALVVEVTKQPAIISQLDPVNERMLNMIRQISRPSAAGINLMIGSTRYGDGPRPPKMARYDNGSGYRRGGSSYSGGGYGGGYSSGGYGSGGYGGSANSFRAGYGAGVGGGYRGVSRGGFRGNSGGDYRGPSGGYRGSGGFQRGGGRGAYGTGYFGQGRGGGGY

On to `Cc1sc(C(=O)Nc2cc(Cl)cc(NS(C)(=O)=O)c2)cc1-c1ncc(OC2CN(C)C2)cc1F` [Example 635], for which the “DHX9 Biochemical Max Inhibition” value was determined as 68.5 and the IC50 stood at 2 nM.

Turning to `CS(=O)(=O)Nc1cc(Cl)cc(NC(=O)c2cc(N3CCOC3=O)cs2)c1` [Example 433], the “DHX9 Biochemical Max Inhibition” value turned out to be 71.2 and the IC50 was found to be 24.1 nM.

With `Cc1cc(F)cnc1-c1cc(C(=O)Nc2cc(Cl)cc(NS(C)(=O)=O)c2)sc1C` [Example 348], the “DHX9 Biochemical Max Inhibition” value is listed as 74.6% and the IC50 amounted to 31.8 nM.

As for `CS(=O)(=O)Nc1cc(Br)cc(NC(=O)c2cnn(-c3ccccn3)c2)c1` [Example 36, N-(3-bromo-5-(methylsulfonamido)phenyl)-1-(pyridin-2-yl)-1H-pyrazole-4-carboxamide], the “DHX9 Biochemical Max Inhibition” value turned out to be 56.86% and the IC50 turned out to be 28 nM.

As for `Cn1cc(C(=O)Nc2cc(Cl)cc(NS(C)(=O)=O)c2)cc1-c1ncc(OC(F)F)cn1` [Example 553], the “DHX9 Biochemical Max Inhibition” value is recorded as 80.2 and the IC50 amounted to 20.3 nM.

For `CS(=O)(=O)Nc1cc(F)cc(NC(=O)c2cc(-c3ncccc3OCc3ccccc3)cs2)c1` [Example 214], the “DHX9 Biochemical Max Inhibition” value came out at 75.9% and the IC50 is 88 nM.

Turning to `Cn1cc(C(=O)Nc2cc(Cl)cc(NS(C)(=O)=O)c2)cc1-c1ccc(N2CCC3(C2)CC3(F)F)cn1` (centres unmarked) [Example 495], the “DHX9 Biochemical Max Inhibition” value is listed as 61.8 and the IC50 stood at 85.4 nM.

With `CN1CCN(c2cnc(-n3cc(C(=O)Nc4cc(Cl)cc(NS(C)(=O)=O)c4)cn3)c(OCc3cccnc3)c2)CC1=O` [Example 193], the “DHX9 Biochemical Max Inhibition” value came out at 65.8% and the IC50 turned out to be 11.1 nM.

As to `Cc1sc(C(=O)Nc2cc(Cl)cc(NS(C)(=O)=O)c2)cc1-c1ncc(F)cn1` [Example 336], the “DHX9 Biochemical Max Inhibition” value worked out at 84% and the IC50 amounted to 9.6 nM.

Regarding `CCS(=O)(=O)Nc1cc(Cl)cc(NC(=O)c2cc(C)n(-c3ncc(N4CC(F)(F)C4)cn3)c2)c1` [Example 423], the “DHX9 Biochemical Max Inhibition” value is 74.2 and the IC50 came out at 21.6 nM.

Consider `CS(=O)(=O)Nc1cc(Cl)cc(NC(=O)c2cn(-c3ccccc3)cn2)c1` [Example 1, N-(3-chloro-5-(methylsulfonamido)phenyl)-1-phenyl-1H-imidazole-4-carboxamide], for which the “DHX9 Biochemical Max Inhibition” value amounted to 48.3% and the IC50 is 320 nM.

`CS(=O)(=O)Nc1cc(Br)cc(NC(=O)c2cnn(-c3cccc(OC(F)F)n3)c2)c1` [Example 57]: the “DHX9 Biochemical Max Inhibition” value came out at 45.8% and the IC50 came out at 14600 nM.

Turning to `COc1cccc2sc(C(=O)Nc3cc(Cl)cc(NS(C)(=O)=O)c3)cc12` [Example 321], the “DHX9 Biochemical Max Inhibition” value is 79.2% and the IC50 was determined as 13.5 nM.

As for `Cc1noc(C)c1COc1cc(F)cnc1-c1cc(C(=O)Nc2cc(Cl)cc(NS(C)(=O)=O)c2)cn1C` [Example 725], the “DHX9 Biochemical Max Inhibition” value is 74 and the IC50 came out at 36.5 nM.

For the compound `Cc1cc(C(=O)Nc2cc(Cl)cc(NS(C)(=O)=O)c2)cn1-c1ncc(N2CC3(C2)CC(F)(F)C3)cn1` [Example 413], the “DHX9 Biochemical Max Inhibition” value was 64.5 and the IC50 was 13.3 nM.

As to `CC(C)C(=O)N1CCN(c2ccc(-n3cc(C(=O)Nc4cc(Cl)cc(NS(C)(=O)=O)c4)cn3)nc2)CC1` [Example 149, N-(3-chloro-5-(methylsulfonamido)phenyl)-1-(5-(4-isobutyrylpiperazin-1-yl)pyridin-2-yl)-1H-pyrazole-4-carboxamide], the “DHX9 Biochemical Max Inhibition” value stood at 65.4% and the IC50 came out at 19.9 nM.

In the case of `Cc1nc(COc2cc(F)cnc2-c2cc(C(=O)Nc3cc(Cl)cc(NS(C)(=O)=O)c3)cn2C)cs1` [Example 724], the “DHX9 Biochemical Max Inhibition” value turned out to be 80.4 and the IC50 is 19.7 nM.

For `Cc1cccc2cc(C(=O)Nc3cc(Cl)cc(NS(C)(=O)=O)c3)cn12` [Example 304], the “DHX9 Biochemical Max Inhibition” value is 59.1% and the IC50 was 399 nM.

For `CS(=O)(=O)Nc1cc(Cl)cc(NC(=O)c2cnn(-c3ncccc3S(C)(=O)=O)c2)c1` [Example 199], the “DHX9 Biochemical Max Inhibition” value worked out at 73.4% and the IC50 was 84.4 nM.

On to `CS(=O)(=O)Nc1cc(Cl)cc(NC(=O)c2cc(-c3ccccc3O)cs2)c1` [Example 106], for which the “DHX9 Biochemical Max Inhibition” value is 58.7% and the IC50 worked out at 78 nM.

Turning to `Cc1cc(C(=O)Nc2cc(Cl)cc(NS(C)(=O)=O)c2)cn1-c1ccc(N2CCS(=O)(=O)CC2)cn1` [Example 285], the “DHX9 Biochemical Max Inhibition” value is 70.6% and the IC50 amounted to 5.4 nM.

Take `Cc1sc(C(=O)Nc2cc(Cl)cc(NS(C)(=O)=O)c2)cc1-c1ccc(OC(C)(C)C)cn1` [Example 380]: the “DHX9 Biochemical Max Inhibition” value was found to be 68.7% and the IC50 turned out to be 33.5 nM.

In the case of `Cn1cc(C(=O)Nc2cc(Cl)cc(NS(C)(=O)=O)c2)cc1-c1ncc(F)cc1OCc1nnnn1C` [Example 625], the “DHX9 Biochemical Max Inhibition” value is 87.8 and the IC50 was 12.6 nM.

On to `CN1CCC(c2ccc(-n3cc(C(=O)Nc4cc(Cl)cc(NS(C)(=O)=O)c4)cn3)nc2)CC1=O` (centres unmarked) [Example 266], for which the “DHX9 Biochemical Max Inhibition” value came to 64.4% and the IC50 was 13.1 nM.

As for `Cc1sc(C(=O)Nc2cc(Cl)cc(NS(C)(=O)=O)c2)cc1-c1ncc(F)cc1F` [Example 349], the “DHX9 Biochemical Max Inhibition” value is 76.4% and the IC50 came out at 23.7 nM.

With `CS(=O)(=O)Nc1cc(Cl)cc(NC(=O)c2cc(-c3ncccc3Nc3ncccn3)cs2)c1` [Example 237], the “DHX9 Biochemical Max Inhibition” value is 73.5% and the IC50 came out at 21 nM.

`Cc1sc(C(=O)Nc2cc(Cl)cc(NS(C)(=O)=O)c2)cc1-c1ncc(N2CC(F)(F)C2)cc1C#N` [Example 715]: the “DHX9 Biochemical Max Inhibition” value is reported as 67.8 and the IC50 was 10.3 nM.

As to `Cc1cc(C(=O)Nc2cc(Cl)cc(NS(C)(=O)=O)c2)cn1-c1ncc(F)cn1` [Example 207], the “DHX9 Biochemical Max Inhibition” value is on record as 70% and the IC50 is 15.2 nM.

Consider `CC1CN(c2ccc(-n3cc(C(=O)Nc4cc(Cl)cc(NS(C)(=O)=O)c4)cn3)nc2)CCO1` (centres unmarked) [Example 92], for which the “DHX9 Biochemical Max Inhibition” value is on record as 61.1% and the IC50 was found to be 22.1 nM.

As for `Cc1cc(C(=O)Nc2cc(Cl)cc(NS(C)(=O)=O)c2)cn1-c1ncccc1OCc1nccs1` [Example 280], the “DHX9 Biochemical Max Inhibition” value is recorded as 76.3% and the IC50 turned out to be 326 nM.

For `CS(=O)(=O)Nc1cc(Br)cc(NC(=O)c2cnn(-c3ncccc3N)c2)c1` [Example 162, 1-(3-aminopyridin-2-yl)-N-(3-bromo-5-(methylsulfonamido)phenyl)-1H-pyrazole-4-carboxamide], the “DHX9 Biochemical Max Inhibition” value is 60.5% and the IC50 was 19.7 nM.

As to `Cc1cccc(C#N)c1-n1cc(C(=O)Nc2cc(Br)cc(NS(C)(=O)=O)c2)cn1` [Example 44], the “DHX9 Biochemical Max Inhibition” value turned out to be 60.3% and the IC50 was 137 nM.

With `Cn1cc(C(=O)Nc2cc(Cl)cc(NS(C)(=O)=O)c2)cc1-c1ncc(N2CCC(F)(F)C2)cc1F` [Example 525], the “DHX9 Biochemical Max Inhibition” value is given as 63.3 and the IC50 is 43.3 nM.

As for `CS(=O)(=O)Nc1cc(Cl)cc(NC(=O)c2cc(-c3ncc(F)cn3)cs2)c1` [Example 338], the “DHX9 Biochemical Max Inhibition” value came to 78% and the IC50 came to 15.7 nM.

Turning to `CCS(=O)(=O)Nc1cc(Cl)cc(NC(=O)c2cc(-c3ncc(F)cc3C)c(C)s2)c1` [Example 350], the “DHX9 Biochemical Max Inhibition” value came out at 67.1%.

For `COc1cc(N2CC(F)(F)C2)cnc1-c1cc(C(=O)Nc2cc(Cl)cc(NS(=O)(=O)CCO)c2)sc1C` [Example 528], the “DHX9 Biochemical Max Inhibition” value stood at 61.5 and the IC50 was 26.2 nM.

As to `CN1CCN(c2cnc(-n3cc(C(=O)Nc4cc(Cl)cc(NS(C)(=O)=O)c4)cn3)nc2)CC1=O` [Example 183], the “DHX9 Biochemical Max Inhibition” value is on record as 67.1% and the IC50 was determined as 20.1 nM.

With `Cc1sc(C(=O)Nc2cc(Cl)cc(NS(C)(=O)=O)c2)cc1-c1ccc(N2CC(C(F)(F)F)C2)cn1` [Example 496], the “DHX9 Biochemical Max Inhibition” value is on record as 71.9 and the IC50 was determined as 19.5 nM.

As to `CS(=O)(=O)Nc1cc(Cl)cc(NC(=O)c2cc(-c3ncc(C(F)(F)F)cn3)cs2)c1` [Example 369], the “DHX9 Biochemical Max Inhibition” value amounted to 61.5% and the IC50 amounted to 57.6 nM.

On to `Cc1cc(C(=O)Nc2cc(Cl)cc(NS(C)(=O)=O)c2)cn1-c1ncc(N2CC(F)(F)C2)cc1C#N` [Example 415], for which the “DHX9 Biochemical Max Inhibition” value was 99.9 and the IC50 is 15.4 nM.

Turning to `Cc1sc(C(=O)Nc2cc(Cl)cc(NS(C)(=O)=O)c2)cc1-c1ncc(OC(C)C)cn1` [Example 541, N-(3-chloro-5-(methylsulfonamido)phenyl)-4-(5-isopropoxypyrimidin-2-yl)-5-methylthiophene-2-carboxamide], the “DHX9 Biochemical Max Inhibition” value is reported as 74.1 and the IC50 worked out at 15.1 nM.

Regarding `Cc1sc(C(=O)Nc2cc(Cl)cc(NS(=O)(=O)CCO)c2)cc1-c1ncc(OC(C)C)cn1` [Example 582], the “DHX9 Biochemical Max Inhibition” value stood at 49.9 and the IC50 came out at 287 nM.

Turning to `CS(=O)(=O)Nc1cc(Cl)cc(NC(=O)c2cnn(C3CCOC3)c2)c1` (centres unmarked) [Example 182], the “DHX9 Biochemical Max Inhibition” value is listed as 73.4% and the IC50 came to 181 nM.

Turning to `CCS(=O)(=O)Nc1cc(Cl)cc(NC(=O)c2cc(-c3ncc(F)cn3)cs2)c1` [Example 343], the “DHX9 Biochemical Max Inhibition” value is on record as 54.4% and the IC50 amounted to 55.2 nM.

Turning to `CS(=O)(=O)Nc1cc(Cl)cc(NC(=O)c2cc(-c3ncccc3CC(=O)N3CCC3)cs2)c1` [Example 382], the “DHX9 Biochemical Max Inhibition” value stood at 75.9%.

For `CCS(=O)(=O)Nc1cc(Cl)cc(NC(=O)c2cc(-c3ccc(F)cn3)n(C)c2)c1` [Example 579], the “DHX9 Biochemical Max Inhibition” value was 65.2 and the IC50 was found to be 31.1 nM.

In the case of `CS(=O)(=O)Nc1cc(Cl)cc(NC(=O)c2cc(-c3ncccc3C(F)(F)F)cs2)c1` [Example 223], the “DHX9 Biochemical Max Inhibition” value is 75.7% and the IC50 amounted to 56.5 nM.
